Peptide text beside a SMILES is read from it.
Test system: 9L/LacZ cells
Assay: Cell confluency as measure of effect of transfection condition on cell growth
Conditions: Qneg siRNA 100 nM, PN183 7 μM or PN73 2 μM where named, nontransfected cells 70%
Method: For each transfection mixture, 9L/LacZ cells (passage 8) were plated at density of 6.0×10^3 cells/well on a 96-well plate. […] The cationic lipid […]™ served as a positive transfection control. Non-transfected cells served as a negative transfection control and a positive control for cell growth.
Transfection efficiency was calculated by dividing the number of fluorescently labeled cells by the total number of cells and multiplying by 100. Cell confluency was used to measure the effect of each transfection condition on cell growth.

C[C@@H](O)[C@H](NC(=O)[C@H](CCC(=O)O)NC(=O)[C@H](Cc1c[nH]c2ccccc12)NC(=O)[C@H](Cc1c[nH]c2ccccc12)NC(=O)[C@@H](NC(=O)[C@H](CCC(=O)O)NC(=O)[C@@H](N)CCCCN)[C@@H](C)O)C(=O)N[C@@H](Cc1c[nH]c2ccccc12)C(=O)N[C@@H](Cc1c[nH]c2ccccc12)C(=O)N[C@H](C(=O)N[C@@H](CCC(=O)O)C(=O)N[C@@H](Cc1c[nH]c2ccccc12)C(=O)N[C@@H](CO)C(=O)N[C@@H](CCC(N)=O)C(=O)N1CCC[C@H]1C(=O)NCC(=O)N[C@@H](CCCNC(=N)N)C(=O)N[C@@H](CCCCN)C(=O)N[C@@H](CCCCN)C(=O)N[C@@H](CCCNC(=N)N)C(=O)N[C@@H](CCCNC(=N)N)C(=O)N[C@@H](CCC(N)=O)C(=O)N[C@@H](CCCNC(=N)N)C(=O)N[C@@H](CCCNC(=N)N)C(=O)N[C@@H](CCCNC(=N)N)C(=O)N1CCC[C@H]1C(=O)N1CCC[C@H]1C(=O)N[C@@H](CCC(N)=O)C(N)=O)[C@@H](C)O [PN183] (H-KETWWETWWTEWSQPGRKKRRQRRRPPQ-NH2)
% Cell Confluency 20 nM (lipid group 20 nM): 70%
% Cell Confluency 60 nM (lipid group 60 nM): 70%
